Data published in patent US10377770B2 (Novartis AG, priority 2015, dated 2019).

molecular target: C-Raf FL (full length CRAF with Y340E and Y341E activating mutations, co-expressed with h14-3-3 zeta) (Homo sapiens (Human), UniProt P04049, Y340E/Y341E); assay: In vitro Raf activity determination, AlphaScreen p-MEK readout, c-Raf (C-Raf FL); assay type: biochemical; settings: c-Raf approximately 4 nM, ATP 1 μM, pre-incubation 60 minutes, reaction 1 hour
Procedure, shortened: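 Full-length C-Raf (~4 nM) pre-incubated 60 min at room temperature with compound and kinase-dead biotinylated MEK1 (~10 nM) in Tris pH 7.5, 15 mM MgCl2, BSA, DTT. Reaction started with 1 μM ATP and run 1 h at room temperature. Phospho-MEK detected by AlphaScreen with anti-p-MEK antibody.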

Chain of C-Raf FL (full length CRAF with Y340E and Y341E activating mutations, co-expressed with h14-3-3 zeta) (P04049 whole entry Y340E/Y341E): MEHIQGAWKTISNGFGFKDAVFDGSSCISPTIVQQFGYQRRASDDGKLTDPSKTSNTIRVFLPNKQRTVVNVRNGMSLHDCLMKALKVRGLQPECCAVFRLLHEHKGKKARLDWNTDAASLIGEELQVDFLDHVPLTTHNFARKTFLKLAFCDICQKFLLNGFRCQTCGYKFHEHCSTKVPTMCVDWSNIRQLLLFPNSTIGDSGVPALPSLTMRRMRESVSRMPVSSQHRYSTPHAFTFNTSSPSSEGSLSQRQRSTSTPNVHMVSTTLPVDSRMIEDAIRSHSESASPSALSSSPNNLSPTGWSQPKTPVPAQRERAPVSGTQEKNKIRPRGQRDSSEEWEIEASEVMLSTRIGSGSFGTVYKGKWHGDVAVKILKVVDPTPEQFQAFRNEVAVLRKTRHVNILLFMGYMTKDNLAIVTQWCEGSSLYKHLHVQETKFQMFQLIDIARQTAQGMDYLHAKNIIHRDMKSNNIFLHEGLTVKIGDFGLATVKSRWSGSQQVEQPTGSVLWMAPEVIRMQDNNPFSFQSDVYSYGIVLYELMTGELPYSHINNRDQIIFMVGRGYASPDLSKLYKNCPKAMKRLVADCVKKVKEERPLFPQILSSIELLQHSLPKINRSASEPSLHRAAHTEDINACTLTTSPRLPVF
Chain of C-Raf FL (full length CRAF with Y340E and Y341E activating mutations, co-expressed with h14-3-3 zeta) (P63104 whole entry partner): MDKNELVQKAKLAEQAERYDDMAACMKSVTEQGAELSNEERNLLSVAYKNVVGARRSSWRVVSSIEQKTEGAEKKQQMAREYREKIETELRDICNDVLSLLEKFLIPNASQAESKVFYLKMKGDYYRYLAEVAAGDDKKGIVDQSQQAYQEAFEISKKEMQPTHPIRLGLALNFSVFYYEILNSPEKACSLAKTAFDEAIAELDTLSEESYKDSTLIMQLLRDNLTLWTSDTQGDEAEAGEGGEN

| SMILES | IC50 |
| --- | --- |
| Cc1ccc(NC(=O)c2ccnc(C(C)(C)F)c2)cc1-c1cc2c(cc1F)C[C@](F)(CO)[C@H]1COCCN21 [Example 478, N-(3-((4aR,5R)-5,8-difluoro-5-(hydroxymethyl)-1,2,4,4a,5,6-hexahydro-[1,4]oxazino[4,3-a]quinolin-9-yl)-4-methylphenyl)-2-(2-fluoropropan-2-yl)isonicotinamide] | 0.2 nM |
| Cc1ncc(NC(=O)c2cccc(C(F)(F)F)c2)cc1-c1cc2c(cc1F)C[C@](F)(CO)[C@H]1COCCN21 [Example 479, N-(5-((4aR,5R)-5,8-difluoro-5-(hydroxymethyl)-1,2,4,4a,5,6-hexahydro-[1,4]oxazino[4,3-a]quinolin-9-yl)-6-methylpyridin-3-yl)-3-(trifluoromethyl) benzamide] | 0.4 nM |
| Cc1ccc(NC(=O)c2ccnc(C(F)(F)F)c2)cc1-c1cc2c(cc1F)C[C@](F)(CO)[C@H]1COCCN21 [Example 480, N-(3-((4aR,5R)-5,8-difluoro-5-(hydroxymethyl)-1,2,4,4a,5,6-hexahydro-[1,4]oxazino[4,3-a]quinolin-9-yl)-4-methylphenyl)-2-(trifluoromethyl) isonicotinamide] | 0.2 nM |
| Cc1ccc(NC(=O)c2ccnc(C(C)(F)F)c2)cc1-c1cc2c(cc1F)C[C@@](F)(CO)[C@@H]1COCCN21 [Example 481, N-(3-((4aS,5S)-5,8-difluoro-5-(hydroxymethyl)-1,2,4,4a,5,6-hexahydro-[1,4]oxazino[4,3-a]quinolin-9-yl)-4-methylphenyl)-2-(1,1-difluoroethyl)iso-nicotinamide] | 1.1 nM |
| Cc1ccc(NC(=O)c2cnnc(C(F)(F)F)c2)cc1-c1cc2c(cc1F)C[C@@](F)(CO)[C@@H]1COCCN21 [Example 482, N-(3-((4aS,5S)-5,8-difluoro-5-(hydroxymethyl)-1,2,4,4a,5,6-hexahydro-[1,4]oxazino[4,3-a]quinolin-9-yl)-4-methylphenyl)-6-(trifluoromethyl) pyridazine-4-carboxamide] | 0.3 nM |
| Cc1ccc(NC(=O)c2ccnc(C(C)(C)F)c2)cc1-c1cc2c(cc1F)C[C@@](F)(CO)[C@@H]1COCCN21 [Example 483, N-(3-((4aS,5S)-5,8-difluoro-5-(hydroxymethyl)-1,2,4,4a,5,6-hexahydro-[1,4]oxazino[4,3-a]quinolin-9-yl)-4-methylphenyl)-2-(2-fluoropropan-2-yl)isonicotinamide] | 1 nM |
| Cc1ncc(NC(=O)c2cccc(C(F)(F)F)c2)cc1-c1cc2c(cc1F)C[C@@](F)(CO)[C@@H]1COCCN21 [Example 484, N-(5-((4aS,5S)-5,8-difluoro-5-(hydroxymethyl)-1,2,4,4a,5,6-hexahydro-[1,4]oxazino[4,3-a]quinolin-9-yl)-6-methylpyridin-3-yl)-3-(trifluoromethyl) benzamide] | 4.1 nM |
| Cc1ccc(NC(=O)c2ccnc(C(F)(F)F)c2)cc1-c1cc2c(cc1F)C[C@@](F)(CO)[C@@H]1COCCN21 [Example 485, N-(3-((4aS,5S)-5,8-difluoro-5-(hydroxymethyl)-1,2,4,4a,5,6-hexahydro-[1,4]oxazino[4,3-a]quinolin-9-yl)-4-methylphenyl)-2-(trifluoromethyl) isonicotinamide] | 0.3 nM |
| Cc1ccc(NC(=O)c2cncc(C(F)(F)F)c2)cc1-c1cc2c(cc1F)C[C@@](F)(CO)[C@@H]1COCCN21 [Example 486, N-(3-((4aS,5S)-5,8-difluoro-5-(hydroxymethyl)-1,2,4,4a,5,6-hexahydro-[1,4]oxazino[4,3-a]quinolin-9-yl)-4-methylphenyl)-5-(trifluoromethyl) nicotinamide] | 1.6 nM |
| Cc1ccc(NC(=O)c2cncc(C(F)(F)F)c2)cc1-c1cc2c(cc1F)C[C@](F)(CO)[C@@H]1COCCN21 [Example 487, N-(3-((4aS,5R)-5,8-difluoro-5-(hydroxymethyl)-1,2,4,4a,5,6-hexahydro-[1,4]oxazino[4,3-a]quinolin-9-yl)-4-methylphenyl)-5-(trifluoromethyl) nicotinamide] | 0.7 nM |
| Cc1ccc(NC(=O)c2cncc(C(F)(F)F)c2)cc1-c1cc2c(cc1F)C[C@](F)(CO)[C@H]1COCCN21 [Example 488, N-(3-((4aR,5R)-5,8-difluoro-5-(hydroxymethyl)-1,2,4,4a,5,6-hexahydro-[1,4]oxazino[4,3-a]quinolin-9-yl)-4-methylphenyl)-5-(trifluoromethyl) nicotinamide] | 0.3 nM |
| Cc1ccc(NC(=O)c2cncc(C(F)(F)F)c2)cc1-c1cc2c(cc1F)C[C@@](F)(CO)[C@H]1COCCN21 [Example 489, N-(3-((4aR,5S)-5,8-difluoro-5-(hydroxymethyl)-1,2,4,4a,5,6-hexahydro-[1,4]oxazino[4,3-a]quinolin-9-yl)-4-methylphenyl)-5-(trifluoromethyl) nicotinamide] | 0.4 nM |
| Cc1ncc(NC(=O)c2cccc(C(F)(F)F)c2)cc1-c1cnc2c(c1)N1CCOC[C@H]1[C@@H](CO)C2 [Example 490, N-(5-((4aR,5S)-5-(hydroxymethyl)-1,2,4,4a,5,6-hexahydro-[1,4]oxazino[4,3-a][1,5]naphthyridin-9-yl)-6-methylpyridin-3-yl)-3 - (trifluoro-methyl)benzamide] | 0.5 nM |
| Cc1ccc(NC(=O)c2ccnc(C(C)(F)F)c2)cc1-c1cnc2c(c1)N1CCOC[C@H]1[C@@H](CO)C2 [Example 492, 2-(1,1-difluoroethyl)-N-(3-((4aR,5S)-5-(hydroxymethyl)-1,2,4,4a,5,6-hexahydro-[1,4]oxazino[4,3-a][1,5]naphthyridin-9-yl)-4-methylphenyl)iso-nicotinamide] | 0.2 nM |
| Cc1ncc(NC(=O)c2cccc(C(F)(F)F)c2)cc1-c1cnc2c(c1)N1CCOC[C@@H]1[C@H](CO)C2 [Example 493, N-(5-((4aS,5R)-5-(hydroxymethyl)-1,2,4,4a,5,6-hexahydro-[1,4]oxazino[4,3-a][1,5]naphthyridin-9-yl)-6-methylpyridin-3-yl)-3-(trifluorometh-yl)benzamide] | 0.1 nM |
| Cc1ccc(NC(=O)c2ccnc(C(F)(F)F)c2)cc1-c1cnc2c(c1)N1CCOC[C@@H]1[C@H](CO)C2 [Example 494, N-(3-((4aS,5R)-5-(hydroxymethyl)-1,2,4,4a,5,6-hexahydro-[1,4]oxazino[4,3-a][1,5]naphthyridin-9-yl)-4-methyphenyl)-2-(trifluoromethyl)iso-nicotinamide] | 0.1 nM |
| Cc1ccc(NC(=O)c2ccnc(C(C)(F)F)c2)cc1-c1cnc2c(c1)N1CCOC[C@@H]1[C@H](CO)C2 [Example 495, 2-(1,1-difluoroethyl)-N-(3-((4aS,5R)-5-(hydroxymethyl)-1,2,4,4a,5,6-hexahydro-[1,4]oxazino[4,3-a][1,5]naphthyridin-9-yl)-4-methylphenyl)iso-nicotinamide] | 0.1 nM |
| CCN1C[C@H]2COCCN2c2cc(-c3cc(NC(=O)c4ccnc(C(F)(F)F)c4)ccc3C)cnc2C1=O [Example 496, (S)-N-(3-(6-ethyl-7-oxo-1,2,4a,5,6,7-hexahydro-4H-[1,4]oxazino[4,3-a]pyrido[2,3-f][1,4]diazepin-10-yl)-4-methylphenyl)-2-(trifluoromethyl)iso-nicotinamide] | 0.7 nM |
| CCN1C[C@H]2COCCN2c2cc(-c3cc(NC(=O)c4cccc(C(F)(F)F)c4)cnc3C)cnc2C1=O [Example 497, (S)-N-(5-(6-ethyl-7-oxo-1,2,4a,5,6,7-hexahydro-4H-[1,4]oxazino[4,3-a]pyrido[2,3-f][1,4]diazepin-10-yl)-6-methylpyridin-3-yl)-3-(trifluoromethyl) benzamide] | 1.4 nM |
